# In patent US8557823B2, “Family of PFKFB3 inhibitors with anti-neoplastic activities” (Advanced Cancer Therapeutics, LLC, priority 2007, dated 2013):
# Tests used:
# [1] = system: Lewis Lung Carcinoma xenografts; assay: Lewis Lung Carcinoma xenografts in C57/Blk6 mice; assay type: in vivo; settings: 0.07 mg/g IP once daily, 14 days
# Method: FIG. 7A is a graph showing the effects of 3PO treatment on the growth of Lewis Lung Carcinoma tumor xenografts in C57/Blk6 mice. Tumors were measured daily using blunt end Vernier calipers, and mice with established tumors (130-190 mg) were blindly randomized into either a DMSO control group (•, n=11) or a 3PO treatment group (∘, n=14). Experimental mice were weighed and given daily intraperitoneal (i.p.) injections of either 50 μL DMSO or 0.07 mg/g 3PO in 50 μL DMSO at the indicated time points. Arrows (↓) represent control or 3PO daily administrations. Statistically significant difference between DMSO and 3PO groups was obtained after initial injection (Day 2, p-value<0.0003).
# Exponentially growing MDA-MB231 and HL-60 cells were collected in appropriate medium, washed twice and resuspended in PBS at a concentration of 20×10^7 cells/mL. […] Body weight and tumor growth were monitored daily throughout the study. Tumor masses were determined by measurement with Vernier calipers using the formula: mass (mg)=[width (mm^2)×length (mm)]/2. […]
# The first tumor model tested consisted of mouse Lewis Lung Carcinoma xenografts grown in C57/Blk6 mice. For this study, mice were given IP injections of either DMSO or the calculated dose of 1 once daily for the duration of the study (14 days). […]
# [2] = Toxicity studies, highest tolerated dose; assay type: in vivo, mice; settings: intraperitoneal (IP) injection in DMSO
# NHBE-ht/LT/ras cells = assay: In vitro growth inhibition, transformed NHBE cells; assay type: cell-based, human
# Method: The K562, HL-60, MDA-MB231, and melanoma (CRL-11174) human cancer cell lines were purchased from ATCC (American Tissue Type Culture Collection, Manassas, Va., United States of America). HeLa, A549, Lewis Lung Carcinoma, MDA-MB231, and melanoma cells were grown in Dulbecco's Modified Eagle Medium (DMEM) (Hyclone, Logan, Utah, United States of America) supplemented with 10% fetal bovine serum (Hyclone, Logan, Utah, United States of America) and 50 μg/mL gentamicin sulfate (Invitrogen, Carlsbad, Calif., United States of America). The HL-60, K562, and Jurkat cell lines were grown in RPMI-1640 medium (Hyclone, Logan, Utah, United States of America) supplemented with 10% fetal bovine serum and 50 μg/mL gentamicin sulfate. The primary Normal Human Bronchial Epithelial (NHBE) cells and cells that were immortalized with human telomerase (ht) and large T antigen (LT) and transformed with mutated ras (ht/LT/ras cells) were cultured in Bronchial Epithelial Cell Basal Growth Medium (Cambrex, Walkersville, Md., United States of America) supplemented with 52 μg/mL bovine pituitary extract, 0.5 μg/mL hydrocortisone, […], 0.5 μg/mL epinephrine, 10 μg/mL transferrin, 5 μg/mL insulin, 0.1 ng/mL retinoic acid, 6.5 ng/mL triiodothyronine, 50 μg/mL gentamycin, and 50 ng/mL amphotericin-B (SingleQuots, Cambrex, Walkersville, Md., United States of America). All cell lines were maintained under 5% CO2 at 37° C.
# All cell lines were plated at 1×10^5 cells/well in the appropriate medium. For suspension cells, increasing concentrations of 1 were added immediately to the medium, whereas, compound 1 treatment was initiated the following day for adherent cell lines. For dose-dependent studies, compound 1 was added in increasing concentrations for 36 hours. For time-dependent studies, 10 μM of compound 1 was added at time 0, 4, 8, 16, 24, or 36 hours. […]
# Cells were collected 48 hours post-treatment, and cell number and viability were determined by trypan blue exclusion. […]
# [3] = system: Lewis Lung Carcinoma xenografts; assay: F2,6BP in Lewis lung carcinoma tumor xenografts; assay type: in vivo, mice; settings: 0.07 mg/g i.p., four hours post-injection
# Method: C57Bl/6 female mice (20 g) were injected subcutaneously with 1×10^6 Lewis lung carcinoma cells. When the xenografts were measured to have a mass of between 150 and 180 mg, the mice were split into two groups. One group was injected i.p. with 0.07 mg/g of compound 1. The other group was used as a control and injected i.p. with 50 μL DMSO. Four hours post-injection, tumors were removed and homogenized in equal volumes of 0.1 M and 0.05 M NaOH. F2,6BP assays were performed as previously described. See Van Shaftingen et al., Eur. J. Biochem, 129, 191-195 (1982). […] F2,6BP concentration in the compound 1-treated mouse xenografts was 8.5±1.7 pmol/mg, while in the control mouse xenografts' F2,6BP concentration was 13.1±1.9 pmol/mg.
# [4] = Echocardiographic examination of cardiac function; assay type: in vivo; settings: compound-treated mice, 0.07 mg/g i.p.
# Method: A difference in cardiac ^18F-2-DG uptake was also observed between the compound 1-treated and control group mice. Echocardiograms were performed as described in Dawn et al., Proc. Natl. Acad. Aci., U.S.A., 102, 3766-3771 (2005). […] Overall, it appears that 1 targets PFK2 activity in vivo resulting in a reduced glycolytic phenotype.
structure (smiles),measurement,setting,value
"O=C(/C=C/c1cccnc1)c1ccncc1 [Compound 1, 3-(3-pyridinyl)-1-(4-pyridinyl)-2-propen-1-one]",suppression of xenograft growth compared to DMSO control,[1],73%
same,highest tolerated dose producing no phenotypic side effects,[2],0.07 mg/g
same,IC50,"NHBE-ht/LT/ras cells; Homo sapiens, NHBE, 48 h",1500 nM
same,concentration at which treatment was completely cytotoxic,NHBE-ht/LT/ras cells; transformed NHBE cells,approximately 10 μM
same,concentration at which treatment was cytostatic,NHBE-ht/LT/ras cells; transformed NHBE cells,below 1 μM
same,"F2,6BP concentration in tumor xenografts",[3],8.5 ± 1.7 pmol/mg
same,ejection fraction,[4],71%±6%
